From a melting point compilation (Tetko et al.; mined from patent text by program, amines drawn as free bases though some values may be those of a salt) come the findings set out here.

With `CC(C)c1cccc(C(C)C)c1NC(=O)CCN1CCN(CCCSc2nc3ccccc3o2)CC1`, the melting point (commonly the temperature, or range, at which the solid turns liquid) lay within 93 to 95 °C. As for `CCN1CCc2cc(Nc3ncc(Cl)c(Nc4ccc(N5CCOCC5)cc4OC)n3)c(OC)cc2CC1=O`, the figure is 212 to 214 °C; as for `O=C1NC(=O)C(c2ccc3ccccc3c2)O1` (stereo not drawn), 187 to 188 °C; as for `CS(=O)(=O)c1c(Cl)c2cccnc2n(Cc2ccccc2)c1=O`, 191 °C. As for `CC(C)(C)OC(=O)Nc1cc(C(=O)NN)ccn1`, the figure is 289 to 290 °C; as for `COc1ccc(-c2c(Cl)c(CN3C(=O)CCC3=O)nc3sc4c(F)c(O)ccc4c23)cc1`, 294 to 295 °C; as for `CCOC(=O)CC(=O)c1cc2cc(F)c(Cl)cc2nc1Cl`, 112 to 114 °C. Then `O=[N+]([O-])c1cccnc1N=C=S`, with 115 to 118 °C; and `O=[N+]([O-])CCc1ccc2ccccc2c1`, with 59 to 60 °C; and `Cc1snnc1SCC1=C(C(=O)OC(C)(C)C)N2C(=O)[C@@H](NC(=O)Cc3cccs3)[C@H]2SC1`, with 155 to 157 °C. Compound `O=C(N1CC(CCl)c2c1cc([N+](=O)[O-])c1ccccc21)C(F)(F)F` (stereo not drawn) registered a melting point of 182 °C. Then `Cc1ccc(-c2cc(F)c(F)cc2-c2ccc(S(C)(=O)=O)cc2)cc1C`, with 125 to 126 °C; and `CCOc1ccc2c(c1)n(C1CCCCC1)c(=O)n2S(=O)(=O)c1ccc(C(=O)NC(C)(C)CC)cc1OC`, with 219 °C.

`CCOC(=O)c1cc2c(O)nncc2nc1N1CCCCC1` returned a melting point of 178 to 179 °C.

In turn, `CC(C)(C)OC(=O)n1cccc1-c1ccc(C[C@H](NC(=O)c2c(Cl)cccc2Cl)C(=O)O)cc1` registered a melting point of 98 to 99 °C. With `Cn1nc(-c2ncc(Cl)cc2F)c(C=O)c1OC(F)F`, the melting point was in the range of 111 to 116 °C. As for `Cn1nc(-c2cc(C=C(Cl)C(=O)O)c(Cl)cc2F)c(Cl)c1C(F)(F)F`, the figure is 195 to 196 °C. `Cc1nc2c(N)nc3c(c2n1CC(C)(C)O)CCCC3` had a melting point of 290 to 292 °C.

`COc1cc(C(=O)O)ccc1Cn1cc(/C=C/C(=O)N2CCCC2)c2ccc(/C=C/C(=O)N3CCCC3)cc21` returned a melting point of 286 to 288 °C.

The compound `COc1cc2c3ccc(OC)c(OC)c3n(Cc3ccc(C(F)(F)F)cc3)c2cc1OC` yielded a melting point of 145 to 146 °C. Then `N#CCCCCCCNCc1ccc(O)cc1`, with 42 to 44.5 °C; and `COc1cc(Cl)c(C#N)cc1C(=O)O`, with 100 to 102 °C. As for `Cn1cnc2cc(NN)ccc2c1=O`, the figure is 208 to 211 °C; as for `COc1c(N2CCC(N)C2)c(F)c(N)c2c(=O)c(C(=O)O)cn(C3CC3)c12` (stereo not drawn), 254 to 257 °C; as for `CC(C)(C)C(=O)Oc1cc(C=CC(=O)c2ccccc2)cc([N+](=O)[O-])c1O`, 148 to 150 °C. Regarding `CCC(CC)(CC(=O)Nc1cccc(OCc2ccc3cc(F)ccc3n2)c1)C(=O)O`, the melting point was in the range of 88 to 90 °C. As for `OC(c1cccc(Br)c1)C1c2ccccc2CCc2ccccc21` (stereo not drawn), the figure is 93.9 °C; as for `Nc1nc2c(sc(=O)n2C2OC(COC(=O)c3ccccc3)C(OC(=O)c3ccccc3)C2OC(=O)c2ccccc2)c(=O)[nH]1` (stereo not drawn), 248 to 250 °C. Then `COc1ccc(OC)c(S(=O)(=O)c2ccc(Cl)cc2NC(=O)N[C@@H](Cc2ccc(NC(=O)c3c(Cl)cccc3Cl)cc2)C(=O)O)c1`, with 180 °C; and `CN1CCC(c2cnc3ccc(C(=O)Nc4ccc(F)cc4)[nH]c2-3)CC1`, with 114 to 116 °C. The compound `CCOC(=O)NC(=S)Nc1nnc(-c2cc(C(C)(C)C)c(O)c(C(C)(C)C)c2)s1` had a melting point of over 250 °C. As for `CCOCCOC(=O)C(=O)Nc1nc(-c2cc3ccccc3oc2=O)cs1`, the figure is 156 to 157 °C. Compound `Cc1ccc(-c2ccc(S(C)(=O)=O)cc2)n1-c1ccc(-c2ccco2)c(Cl)c1` returned a melting point of 127 to 131 °C. `Cn1sc(Cl)c(Cl)c1=O` showed a melting point of 119 to 120 °C. As for `Cc1oc(-c2ccccc2)nc1CNC(=O)c1ccc(Cn2cc(CCC(=O)O)c(-c3ccccc3)n2)cc1`, the figure is 177 to 178 °C. As for `O=C(O)C(=CNc1ccc(OCc2ccccc2)c(OCc2ccccc2)c1)C(=O)O`, the figure is 73 to 76 °C; as for `CCC1CCC(=NO)C=C1c1ccc(OCC(=O)O)c(Cl)c1Cl` (stereo not drawn), 88 to 90 °C. Compound `CCCCOc1ccc(-c2nc(-c3ccccc3Cl)nn2C)c(Cl)c1` came in with a melting point of 60 to 62 °C. `COc1ccc(COCc2nc(C(C)C)c(Sc3cc(Cl)cc(Cl)c3)n2CC(C)=O)cc1` registered a melting point of 87 to 90 °C. As for `CCC1Cc2cc3c(cc2C(c2ccc([N+](=O)[O-])cc2)O1)OCO3` (stereo not drawn), the figure is 116 to 118 °C; as for `CC(Sc1cc2cc(O)ccc2[nH]1)(C(=O)O)c1ccccc1` (stereo not drawn), 180 to 182 °C; as for `CCOC(=O)C(C)(C)C(=O)C(Oc1ccc(Cl)cc1)n1ccnc1` (stereo not drawn), 88 °C. In the case of `COc1ccccc1-c1ccc2cnc(Nc3ccc(=O)[nH]c3)nn12`, the melting point lay within 205 to 207 °C. Then `CN(CCCCNC(=NCCSCc1csc(NC(=N)N)n1)NC#N)CCN(Cc1ccc(F)cc1)c1ccccn1`, with 137 °C; and `CS(=O)(=O)c1ccc(-c2cnn(-c3cccc(Cl)c3)c(=O)c2C2CCCCC2)cc1`, with 85 to 90 °C; and `O=C(CCCCCNC(=O)c1ccccc1S)Nc1cccnc1`, with 110 to 112 °C. Then `NOCc1cnn(C(c2ccccc2)(c2ccccc2)c2ccccc2)c1`, with 133 to 136 °C; and `CCOC(=O)/C=C/c1cc(OC)c(OC)c(OC)c1C#N`, with 150 to 152 °C; and `C=C1[C@H](CO)[C@H](O)[C@H](O)[C@H]1OCc1ccccc1`, with 122 to 124 °C.

Compound `CCOC(=O)NC(=O)CNS(=O)(=O)c1ccc(N2CCC(NC[C@H](O)c3ccc(O)c(NS(C)(=O)=O)c3)CC2)cc1` showed a melting point of 98 to 105 °C. Then `CC(=O)C1CCC2C3CCC4=CC(=O)C=CC4(C)C3=CCC12C` (stereo not drawn), with 161 to 163 °C; and `CC(=O)Nc1c(C#N)c(C#N)nn1-c1c(Cl)cc(C(F)(F)F)cc1Cl`, with 208 to 209 °C; and `O=C1CCCc2[nH]c3c(F)cccc3c21`, with 222 to 224 °C. As for `CC(C)c1nc2ccccn2c(=O)c1Br`, the melting point lay within 204 to 207 °C. As for `COc1ccc(C(=O)CN2CCN(C3CCCCO3)C2=O)cc1OC` (stereo not drawn), the figure is 120 °C; as for `O=C(NCCN(C1CC1)S(=O)(=O)c1ccccc1[N+](=O)[O-])N1CCN2C(=O)OC(c3cccc(F)c3)(c3cccc(F)c3)C2C1` (stereo not drawn), 203 °C; as for `O=c1[nH][nH]c(C(F)(F)F)c1Cc1ccc(F)cc1`, 159 to 160 °C. As for `N#CC(=Cc1cc(O)c(O)c(Cl)c1)C(=O)Nc1cccc(Cl)c1`, the melting point was over 300 °C. Then `Cc1cc([N+](=O)[O-])cnc1CCC#N`, with 73 to 74 °C; and `CCOC(=O)CN1CCN(CCOc2cc3c(Nc4cccc(Br)c4)ncnc3cc2OC)CC1`, with 155 °C; and `CCCCc1nc(SC)c(C(=O)OCC)n1Cc1ccc(-c2nc3ccccn3c2C#N)cc1`, with 168 °C.

In turn, `Clc1ccc(C2=NOCCS2)s1` gave a melting point of 74 to 77 °C.

`COc1ccc(Cc2oc3cccc(O)c3c2C)cc1`: the melting point fell in the range of 130 to 133 °C. As for `CCOc1cc(COc2cc(CCC(=O)O)n(-c3ccccc3)n2)cc(COc2ccc(Cl)cc2Cl)c1`, the figure is 152 °C; as for `COC(=O)Cn1c(C(=O)O)cc2ccccc21`, 190 °C; as for `COc1ccc(-c2cc(=O)n(CCN3CCOCC3)nc2-c2ccc(OC)cc2)cc1`, 145 to 146 °C. `O=C(O)CCCOc1cccc(CCCCCCOc2ccc3c(c2CCCc2ccccc2)OCCC3=O)c1CCC(=O)O`: the melting point is 104 to 106 °C.

In the case of `CCCS(=O)(=O)c1nc2cc(-n3nc(C)n(C)c3=O)c(F)cc2s1`, the melting point lay in the range of 196 to 198 °C. As for `COC(c1ccccc1)C(C)O` (stereo not drawn), the figure is 104 to 106 °C; as for `CC(C)C(=O)OCC(COC(=O)C(C)C)OCn1cnc2c(=O)[nH]c(N)nc21`, 193 to 198 °C; as for `CC(C)Nc1cccc2c1C(=O)c1cccc(NC(C)C)c1C2=O`, 170 to 172 °C. Then `O=C(Nc1cccc(Nc2nc(-c3cccnc3)cs2)c1)c1ccc(/C=C/ONO)s1`, with 206 °C; and `Cc1cc(C)c(N=c2cc(-c3ccc(O)c(O)c3)n(C)c(=O)n2C)c(C)c1`, with 222 to 225 °C; and `N#CCn1nc2n(c1=O)-c1ccc(Cl)nc1C(c1ccccc1Cl)=NC2`, with 198 to 200 °C. Then `COc1ccc(Cn2c(=O)c3cc([N+](=O)[O-])ccc3n(CCCCBr)c2=O)cc1`, with 143 to 144 °C; and `N#CSCCNc1ccc([N+](=O)[O-])cc1Cl`, with 148 to 150 °C; and `CCOC(=O)COc1c(Br)cc(-c2cccc3sc4ccccc4c23)cc1Br`, with 140 to 142 °C. On to `O=C(c1cccc([N+](=O)[O-])c1)N1CCOCC1`, for which the melting point fell in the range of 83.5 to 85 °C. Compound `CCc1n[nH]c(CC)c1CCCCCCOc1ccc(Br)cc1` registered a melting point of 31 to 33 °C. Then `CC(=O)c1nn(-c2c(Cl)cc(C(F)(F)F)cc2Cl)cc1C1CC1(Br)Br` (stereo not drawn), with 150 °C; and `OCc1c[nH]c(-c2ccc(O)cc2)n1`, with 212 to 214 °C; and `CC(=O)N1CCOc2ccc(C3=NNC(=O)CC3)cc21`, with 156 to 158 °C. As for `O=C(Nc1nc(Cl)cc(Cl)n1)NS(=O)(=O)c1cccc2cccnc12`, the figure is 198 to 200 °C; as for `O=c1ncc(Br)cn1Cc1cccs1`, 188 to 190 °C; as for `COC(=O)c1ccc(-c2ccccc2CBr)cc1`, 80 to 81 °C.

In turn, `CCCCCCC(C)N(C(C)=O)c1ccc(I)cc1` (stereo not drawn) registered a melting point of 60 to 62 °C. As for `COc1ccc2c(c1)SSSSS2`, the figure is 97 to 98 °C; as for `CC(N)=CC(=O)OCC1CC1`, 55 to 58 °C.
